Data from US20030134859A1 (SANKYO COMPANY, LIMITED, priority 2000, published 2003).

Test system: leptin production
Assay: Enhancing activity for leptin production in adipocytes (ELISA)
Format: cell-based, rat
Details: leptin concentration as % of control group; for activity at 0.001 µM: 1 nm; for Facilitating activity to produce leptin: 24 hr
Summary of the method: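 Leptin release, quantified by rat leptin ELISA, expressed as percent of 0.1% DMSO control after 24 h at 37 °C. Cells were floating adipocytes isolated by collagenase digestion of epididymal fat from male 6-week Wistar Imamichi rats; compound tested at 1 nM–1 µM final.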

[1] = Rattus norvegicus, Adipocyte, 24 h, 1 μM, read-out: Facilitating activity to produce leptin
[2] = Rattus norvegicus, Adipocyte, 24 h, 100 nm, read-out: Facilitating activity to produce leptin
[3] = Rattus norvegicus, Adipocyte, 24 h, read-out: Facilitating activity to produce leptin

Molecule	activity at 1 µM [1]	activity at 0.1 µM [2]	further results
O=C(Nc1ccc(-c2ccccc2)cc1)c1cc([N+](=O)[O-])ccc1Cl [Example 2, N-(4-Phenylphenyl)-(2-chloro-5-nitrophenyl)carboxamide]	113%	–	–
COc1ccc(NC(=O)c2cc([N+](=O)[O-])ccc2Cl)cc1-c1ccccc1 [Example 6, N-(4-Methoxy-3-phenyl)phenyl-(2-chloro-5-nitrophenyl)carboxamide]	108%	111%	–
O=C(Nc1ccccc1-c1ccccc1)c1cc([N+](=O)[O-])ccc1Cl [Example 7, N-(2-Phenylphenyl)-(2-chloro-5-nitrophenyl)carboxamide]	–	114%	–
CCOC(=O)c1ccc(NC(=O)c2cc([N+](=O)[O-])ccc2Cl)cc1 [Example 26, N-(4-Ethoxycarbonylphenyl)-(2-chloro-5-nitrophenyl)carboxamide]	–	115%	–
CC(C)(C)c1cc(NC(=O)c2cc([N+](=O)[O-])ccc2Cl)cc(C(C)(C)C)c1O [Example 29, N-(3,5-Di-t-butyl-4-hydroxyphenyl)-(2-chloro-5-nitrophenyl)carboxamide]	142%	–	–
Cc1ccccc1-c1csc(NC(=O)c2cc([N+](=O)[O-])ccc2Cl)n1 [Example 39, N-[4-(2-Methylphenyl)thiazol-2-yl]-(2-chloro-5-nitrophenyl)carboxamide]	119%	109%	–
O=C(Nc1cccnc1)c1cc([N+](=O)[O-])ccc1Cl [Example 50, N-(3-Pyridyl)-(2-chloro-5-nitrophenyl)carboxamide]	109%	119%	activity at 0.001 µM [3]: 118%; activity at 0.01 µM (Rattus norvegicus, Adipocyte, 24 h, 10 nm, read-out: Facilitating activity to produce leptin): 124%
Cc1ccc(NC(=O)c2cc([N+](=O)[O-])ccc2Cl)nc1 [Example 52, N-(5-Methylpyridin-2-yl)-(2-chloro-5-nitrophenyl)carboxamide]	–	–	activity at 0.001 µM [3]: 111%
O=C(Nc1ccc2c3c(cccc13)CC2)c1cc([N+](=O)[O-])ccc1Cl [Example 54, N-(Acenaphthen-5-yl)-(2-chloro-5-nitrophenyl)carboxamide]	113%	–	–
Cc1cc(Cl)nc(NC(=O)c2cc([N+](=O)[O-])ccc2Cl)n1 [Example 78, N-(4-Chloro-6-methylpyrimidin-2-yl)-(2-chloro-5-nitrophenyl)carboxamide]	114%	126%	–
Cn1c(NC(=O)c2cc([N+](=O)[O-])ccc2Cl)nc2ccccc21 [Example 82, N-(1-Methylbenzimidazol-2-yl)-(2-chloro-5-nitrophenyl)carboxamide]	111%	108%	–
O=C(Nc1cccc2nsnc12)c1cc([N+](=O)[O-])ccc1Cl [Example 86, N-(2,1,3-Benzothiazol-4-yl)-(2-chloro-5-nitrophenyl)carboxamide]	–	110%	–
Cc1cc(NS(=O)(=O)c2ccc(NC(=O)c3cc([N+](=O)[O-])ccc3Cl)cc2)no1 [Example 99]	–	–	Facilitating activity to produce leptin (1 μM): 113.9%
CCCCCCN(CCCCCC)c1ccc(NC(=O)c2cc([N+](=O)[O-])ccc2Cl)cc1 [Example 138, N-[4-(N,N-di-n-Hexylamino)phenyl]-(2-chloro-5-nitrophenyl)carboxamide]	111%	–	–
CN(C)c1cccc(NC(=O)c2cc([N+](=O)[O-])ccc2Cl)c1 [Example 176, N-(3-Dimethylamino)phenyl-(2-chloro-5-nitrophenyl)carboxamide]	–	110%	–
O=C(Nc1ccc(S(=O)(=O)Nc2cccnc2)cc1)c1cc([N+](=O)[O-])ccc1Cl [Example 178]	117%	–	–
N-[4-(Pyrrolidinylsulfonyl)phenyl]-(2-chloro-5-nitrophenyl)carboxamide [Example 152]	–	–	Facilitating activity to produce leptin (100 nm): 116.4%
